Data: ChEMBL document CHEMBL6074686 (Eur J Med Chem, 2025)
The source made the active and inactive calls. No cut-off for these calls is given here.

Columns and labels:
MCF7 [1] = assay: Inhibition of cell migration in human MCF7 cells assessed as wound closure ratio at 2.5 nM incubated for 24 hrs by wound healing assay (reference value: 100%); format: functional; parameters: scale not given: the % may be the effect or the level left
MCF7 [2] = assay: Induction of apoptosis in human MCF7 cells assessed as upregulation of cleaved-caspase-3 expression incubated for 24 hrs by Western blotting analysis; format: functional, cell-based
Tubulin (Homo sapiens) = Tubulin (Homo sapiens) (UniProt P68371+Q9H4B7+P0DPH7+P68366+Q13509+Q71U36+P04350+Q3ZCM7+P07437+P68363+Q9BQE3+Q6PEY2+Q13885+Q9BVA1+Q9BUF5); assay: Inhibition of tubulin polymerization (unknown origin) assessed as reduction in optical density at 340 nm; format: protein-complex assay; details: dose 5-20 µM
MCF7 [3] = assay: Inhibition of cell migration in human MCF7 cells assessed as wound closure ratio at 10 nM incubated for 24 hrs by wound healing assay (reference value: 100%); format: functional; parameters: scale not given: the % may be the effect or the level left
A549 [4] = assay: Antitumor activity against human A549 cells assessed as reduction in cell viability incubated for 72 hrs by CCK8 assay; format: functional, cell-based; details: A549, 72 h
SK-OV-3 [5] = assay: Inhibition of cell migration in human SK-OV-3 cells assessed as area of migrated cells at 1.25 nM incubated for 24 hrs by crystal violet staining based inverted microscopic analysis (reference value: 30.1 +/- 1.3 mm^3); format: functional
MCF7 [6] = assay: Induction of apoptosis in human MCF7 cells assessed as upregulation of Bcl-2 expression at 100 nM incubated for 24 hrs by Western blotting analysis; format: functional, cell-based
A549 [7] = assay: Induction of cell cycle arrest in human A549 cells assessed as downregulation of Cdc-25c expression incubated for 24 hrs by Western blotting analysis; format: functional, cell-based; details: dose 25-100 nM
SK-OV-3 [8] = assay: Induction of apoptosis in human SK-OV-3 cells assessed as downregulation of Bcl-2 expression incubated for 24 hrs by Western blotting analysis; format: functional, cell-based
SK-OV-3 [9] = assay: Induction of cell cycle arrest in human SK-OV-3 cells assessed as upregulation of Cdc-2 expression at 25 to 50 nM incubated for 24 hrs by Western blotting analysis; format: functional, cell-based; details: dose 25-50 nM
SK-OV-3 [10] = assay: Antitumor activity against human SK-OV-3 cells xenografted xenografted in female BALB/c nude mouse assessed as downregulation of Bcl-2 expression level in tumor at 5 to 10 mg/kg, […] via tail vein once every 2 to 3 days by immunohistochemistry analysis; format: functional, organism-based; details: dose 5-10 mg/kg, time 2-3 day
MCF7 [11] = assay: Inhibition of cell migration in human MCF7 cells assessed as ratio of migrated cells at 12.5 nM incubated for 24 hrs by crystal violet staining based inverted microscopic analysis (reference value: 100%); format: functional; parameters: scale not given: the % may be the effect or the level left
SK-OV-3 [12] = assay: Antitumor activity against human SK-OV-3 cells xenografted xenografted in female BALB/c nude mouse assessed as upregulation of cleaved PARP expression level in tumor at 5 to 10 mg/kg, […] via tail vein once every 2 to 3 days by immunohistochemistry analysis; format: functional, organism-based; details: dose 5-10 mg/kg, time 2-3 day
SK-OV-3 [13] = assay: Induction of cell cycle arrest in human SK-OV-3 cells assessed as increase in G2/M phase cells incubated for 24 hrs PI staining based flow cytometric analysis; format: functional; details: dose 2.5-40 nM
SK-OV-3 [14] = assay: Induction of apoptosis in human SK-OV-3 cells assessed as upregulation of Bcl-2 expression at 100 nM incubated for 24 hrs by Western blotting analysis; format: functional, cell-based
MCF7 [15] = assay: Induction of apoptosis in human MCF7 cells assessed as increase in apoptotic cells at 6.25 to 100 nM incubated for 24 hrs by IncuCyte live-cell imaging analysis; format: functional, cell-based; details: dose 6.25-100 nM
[16] = Toxicity in female BALB/c nude mouse xenografted with human SK-OV-3 cells assessed as drug tolerance by measuring body weight loss at 15 mg/kg, administered via tail vein for 5 days and measured daily; format: organism-based; details: in vivo, iv, 120 h, time 5 day
SK-OV-3 [17] = assay: Inhibition of cell migration in human SK-OV-3 cells assessed as decrease in cell density at 25 to 50 nM incubated for 24 hrs by wound healing assay; format: functional, cell-based; details: dose 25-50 nM
SK-OV-3 [18] = assay: Inhibition of cell migration in human SK-OV-3 cells assessed as reduction in wound closure at 25 nM incubated for 24 hrs by wound healing assay (reference value: 21.8 +/- 7.6%); format: functional; details: SK-OV-3, 24 h, values are per cent of control
SK-OV-3 [19] = assay: Inhibition of cell migration in human SK-OV-3 cells assessed as ratio of migrated cells at 1.25 nM incubated for 24 hrs by Transwell assay (reference value: 100 %); format: functional; parameters: scale not given: the % may be the effect or the level left
[20] = Toxicity in female BALB/c nude mouse xenografted with human SK-OV-3 cells assessed as pathological changes in spleen at 5 to 10 mg/kg, […] via tail vein once every 2 to 3 days by H and E staining based analysis; format: organism-based; details: in vivo, dose lower 5 mg/kg, time lower 2 day, dose upper 10 mg/kg, time upper 3 day
SK-OV-3 [21] = assay: Inhibition of cell migration in human SK-OV-3 cells assessed as reduction in wound closure at 50 nM incubated for 24 hrs by wound healing assay (reference value: 21.8 +/- 7.6%); format: functional; details: SK-OV-3, 24 h, values are per cent of control
MCF7 [22] = assay: Inhibition of cell migration in human MCF7 cells assessed as wound closure at 5 nM incubated for 24 hrs by wound healing assay (reference value: 44.5 +/- 8.8%); format: functional; parameters: scale not given: the % may be the effect or the level left
SK-OV-3 [23] = assay: Inhibition of cell migration in human SK-OV-3 cells assessed as wound closure ratio at 50 nM incubated for 24 hrs by wound healing assay (reference value: 100%); format: functional; parameters: scale not given: the % may be the effect or the level left
[24] = Toxicity in female BALB/c nude mouse xenografted with human SK-OV-3 cells assessed as pathological changes in heart at 5 to 10 mg/kg, […] via tail vein once every 2 to 3 days by H and E staining based analysis; format: organism-based; details: in vivo, dose lower 5 mg/kg, time lower 2 day, dose upper 10 mg/kg, time upper 3 day
[25] = Toxicity in female BALB/c nude mouse xenografted with human SK-OV-3 cells assessed as pathological changes in liver at 5 to 10 mg/kg, […] via tail vein once every 2 to 3 days by H and E staining based analysis; format: organism-based; details: in vivo, dose lower 5 mg/kg, time lower 2 day, dose upper 10 mg/kg, time upper 3 day
[26] = Toxicity in female BALB/c nude mouse xenografted with human SK-OV-3 cells assessed as pathological changes in kidney at 5 to 10 mg/kg, […] via tail vein once every 2 to 3 days by H and E staining based analysis; format: organism-based; details: in vivo, dose lower 5 mg/kg, time lower 2 day, dose upper 10 mg/kg, time upper 3 day
MCF7 [27] = assay: Inhibition of cell migration in human MCF7 cells assessed as increase in cell density at 20 nM incubated for 24 hrs by wound healing assay; format: functional, cell-based
[28] = Toxicity in female BALB/c nude mouse xenografted with human SK-OV-3 cells assessed as drug tolerance by measuring lethargy at 30 mg/kg, administered via tail vein for 5 days and measured daily; format: organism-based; details: in vivo, iv, 120 h, time 5 day
[29] = Toxicity in female BALB/c nude mouse xenografted with human SK-OV-3 cells assessed as drug tolerance by measuring reduction in water intake at 30 mg/kg, administered via tail vein for 5 days and measured daily; format: organism-based; details: in vivo, iv, 120 h, time 5 day
[30] = Toxicity in female BALB/c nude mouse xenografted with human SK-OV-3 cells assessed as drug tolerance by measuring loose stools at 30 mg/kg, administered via tail vein for 5 days and measured daily; format: organism-based, Feces; details: in vivo, iv, 120 h, time 5 day
SK-OV-3 [31] = assay: Inhibition of cell migration in human SK-OV-3 cells assessed as ratio of migrated cells at 2.5 nM incubated for 24 hrs by Transwell assay (reference value: 100 %); format: functional; parameters: scale not given: the % may be the effect or the level left
SK-OV-3 [32] = assay: Induction of apoptosis in human SK-OV-3 cells assessed as upregulation of cleaved-caspase-3 expression incubated for 24 hrs by Western blotting analysis; format: functional, cell-based; details: dose 25-100 nM

CNc1nc(N2CCCc3cc(OC)ccc32)c2cc(F)ccc2n1
Activity (MCF7 [1]): 98.8%
Activity (MCF7 [2]): Dose-dependent-effect
inhibition (Tubulin (Homo sapiens)): Dose-dependent-effect
Activity (MCF7 [3]): 104.4%
IC50 (A549 [4]): 2.7 nM
Activity (SK-OV-3 [5]): 21.7 mm3
Activity (MCF7 [6]): inactive
Activity (A549 [7]): Dose-dependent-effect
Activity (SK-OV-3 [8]): Active
Activity (SK-OV-3 [9]): Active
Activity (SK-OV-3 [10]): Active
Activity (MCF7 [11]): 60.4%
Activity (SK-OV-3 [12]): Active
Activity (SK-OV-3 [13]): Dose-dependent-effect
Activity (SK-OV-3 [14]): inactive
Activity (MCF7 [15]): Active
Activity [16]: Toxic
inhibition (SK-OV-3 [17]): Active
response, % of control at 0.025 µM (SK-OV-3 [18]): 11.2%
Activity (SK-OV-3 [19]): 72.3%
Activity [20]: Non-toxic
response, % of control at 0.05 µM (SK-OV-3 [21]): 4.9%
Activity (MCF7 [22]): 43.3%
Activity (SK-OV-3 [23]): 22.7%
Activity [24]: Non-toxic
Activity [25]: Non-toxic
Activity [26]: Non-toxic
inhibition (MCF7 [27]): Active; Increase In Cell Density Was Notably Slowed Down
Activity [28]: Toxic
Activity [29]: Toxic
Activity [30]: Toxic
Activity (SK-OV-3 [31]): 62.9%
Activity (SK-OV-3 [32]): Dose-dependent-effect
